Data: patent US20240408094A1, “INHIBITION OF USP7 INDUCES P53-INDEPENDENT TUMOR GROWTH SUPPRESSION IN TRIPLE-NEGATIVE BREAST CANCERS BY DESTABILIZING FOXM1” (The Trustees of Columbia University in the City of New York, priority 2023, published 2024)
Where a SMILES comes first, the peptide text is derived from it. The star is where a group is joined. Cbz = O=C(OCc1ccccc1)*

Tests used:
[1] = molecular target: T1, USP7 (Homo sapiens, UniProt Q93009); test: Rescue of PU7-1-mediated USP7 degradation by pathway inhibitors in CAL33; type: cell-based; conditions: CAL33, 5 μM PU7-1; 5 μM MLN4924, 25 μM Chloroquine or 5 μM MG132 for 24 h
T1 construct: used to treat CAL33 cells that express high levels of USP7 protein; endogenous in cells; host or cells: CAL33 (human head and neck squamous cell cancer); for A6 also the CRBN CRISPR knockout CAL33
Method: USP7 protein levels were detected by immunoblots. […] USP7 protein levels were measured by immunoblots. […] USP7 protein levels were detected by immunoblots, then quantified by ImageJ after normalized to internal control β-actin. Half maximal degradation concentration (DC50) was calculated by Graphpad Prism.
To investigate the mechanism of action of PU7-1, CRBN knockout (KO) CAL33 cell line was generated using CRISPR-Cas9 technology. Control and CRBN KO cells were treated with 2.5 μM of PU7-1 for 72 h and then the expression levels of USP7 and CRBN proteins were detected by western blot analysis. CRBN protein was undetectable in the KO cells (FIG. 3H). […] CAL33 cells were first treated with 5 μM of PU7-1 for 48 h to degrade the USP7 proteins, and then treated with 5 μM of MLN4924, 25 μM of Chloroquine (CLQ) or 5 μM of MG132 for additional 24 h.

[2] = tested on: FOXM1; test: Block of PU7-1-induced FOXM1 destabilization by pathway inhibitors in CAL33; type: cell-based, human; conditions: CAL33, 10 μM PU7-1 72 h; 1 μM MLN4924 or BafA1 24 h, 10 μM MG132 6 h
[3] = molecular target: T1, USP7; test: USP7 protein degradation by western blot in CAL33 cells; type: cell-based; conditions: CAL33 and A549 cells, 2.5 μM, 48 h
Method: To specifically degrade USP7, a set of 66 PROTAC compounds were designed and synthesized that contain an USP7 specific binding moiety XL177A and an E3 ubiquitin ligase (CRBN or VHL) binding moiety connected by different linkers. All putative USP7 PROTACs were used to treat CAL33 cells that express high levels of USP7 protein, and then the USP7 protein levels were determined by western blot (FIGS. 10A and 10B). Through initial screening, PU7-1 was identified as a potential USP7 degrader (FIG. 3A and FIG. 10). […] The effect of PU7-1 was also tested in several human cancer cells harboring wild-type p53. […] In addition, to exclude the possibility that PU7-1 affects the USP7 protein levels by regulating its transcription, a quantitative real-time PCR was performed in CAL33 treated with PU7-1 for 72 h. […]
Cells were lysed in FLAG lysis buffer (50 mM Tris-HCl (pH 7.3), 137 mM NaCl, 10 mM NaF, 0.5 mM EDTA, 1% Triton X-100, 0.2% Sarkosyl, 10% glycerol) freshly supplemented with protease inhibitor cocktail. Protein concentration was determined by the Bio-Rad protein assay. […] Membranes were blocked with 5% (w/v) nonfat milk in Tris-buffered saline with Tween-20 (TBST), incubated with primary antibodies, then secondary HRP-conjugated antibodies (Jackson ImmunoResearch, 1:10000 dilution) and detected on autoradiographic films after incubating with ECL (Thermo Scientific, #32106). […]

T1 sequence (Q93009 whole entry): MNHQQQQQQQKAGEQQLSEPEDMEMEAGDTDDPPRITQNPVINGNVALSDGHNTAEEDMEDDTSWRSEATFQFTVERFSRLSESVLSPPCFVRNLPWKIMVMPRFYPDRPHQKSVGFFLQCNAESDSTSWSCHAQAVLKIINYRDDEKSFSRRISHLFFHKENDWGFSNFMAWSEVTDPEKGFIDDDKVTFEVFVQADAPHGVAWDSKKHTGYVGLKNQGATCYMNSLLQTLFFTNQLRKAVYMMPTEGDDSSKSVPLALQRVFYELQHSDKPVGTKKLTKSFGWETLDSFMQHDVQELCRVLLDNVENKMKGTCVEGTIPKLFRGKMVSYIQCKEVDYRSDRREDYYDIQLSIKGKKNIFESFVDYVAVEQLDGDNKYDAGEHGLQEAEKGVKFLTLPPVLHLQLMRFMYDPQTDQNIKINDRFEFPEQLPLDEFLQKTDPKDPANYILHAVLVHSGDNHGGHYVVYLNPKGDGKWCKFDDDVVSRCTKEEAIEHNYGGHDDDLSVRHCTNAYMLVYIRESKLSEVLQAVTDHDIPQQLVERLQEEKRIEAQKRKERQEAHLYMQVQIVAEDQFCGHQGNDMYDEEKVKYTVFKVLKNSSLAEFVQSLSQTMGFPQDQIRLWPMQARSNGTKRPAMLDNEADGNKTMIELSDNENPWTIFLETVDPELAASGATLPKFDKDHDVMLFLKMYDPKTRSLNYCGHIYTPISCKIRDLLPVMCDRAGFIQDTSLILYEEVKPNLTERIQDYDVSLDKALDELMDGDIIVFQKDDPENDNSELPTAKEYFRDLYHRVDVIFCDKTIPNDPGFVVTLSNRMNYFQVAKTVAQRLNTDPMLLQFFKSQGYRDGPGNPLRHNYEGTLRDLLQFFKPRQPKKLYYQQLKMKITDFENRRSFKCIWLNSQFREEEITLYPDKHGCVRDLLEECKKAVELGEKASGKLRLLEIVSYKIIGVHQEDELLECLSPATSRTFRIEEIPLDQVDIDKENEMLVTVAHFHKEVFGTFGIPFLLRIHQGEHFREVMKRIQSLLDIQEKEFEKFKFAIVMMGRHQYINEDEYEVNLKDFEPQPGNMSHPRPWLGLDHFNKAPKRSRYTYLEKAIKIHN

Structure (SMILES)	effect on USP7 degradation mediated by PU7-1 [1]	block of PU7-1-induced destabilization of FOXM1 [2]	capability to degrade USP7 protein [3]
CCN(CC)CCCC(C)Nc1ccnc2cc(Cl)ccc12 (stereo not drawn) [Chloroquine]	no effect		
CC(C)C[C@@H](C=O)NC(=O)[C@H](CC(C)C)NC(=O)[C@H](CC(C)C)NC(=O)OCc1ccccc1 [MG132] (Cbz-Leu-Leu-Leu-aldehyde)	significantly rescued	readily blocked	
NS(=O)(=O)OC[C@@H]1C[C@@H](n2ccc3c(N[C@H]4CCc5ccccc54)ncnc32)C[C@@H]1O [MLN4924]	significantly rescued	readily blocked	
CN1C(=O)CCC(N2Cc3c(CCCCCN4CCN(CCC(=O)Nc5ccc6c(=O)n(CC7(O)CCN(C(=O)C(CCCNC(=O)c8ccc9c(Cl)c%10c(nc9c8)CCCC%10)Cc8ccccc8)CC7)cnc6c5)CC4)cccc3C2=O)C1=O (stereo not drawn) [PU7-1N, N-(4-benzyl-5-(4-hydroxy-4-((7-(3-(4-(5-(2-(1-methyl-2,6-dioxopiperidin-3-yl)-1-oxoisoindolin-4-yl)pentyl)piperazin-1-yl)propanamido)-4-oxoquinazolin-3 (4H)-yl)methyl)piperidin-1-yl)-5-oxopentyl)-9-chloro-5,6,7,8-tetrahydroacridine-3-carboxamide]			defective capability to degrade USP7 protein
